In patent US4670418A, “Method of using somatostatin as an analgesic or an anesthetic” (CuraMED Pharma GmbH, priority 1984, dated 1987):

Key:
dogs = assay: investigation with dogs, analgesia test according to Cohen (heated plate); type: in vivo
[1] = in vivo; cited from earlier work
[2] = penetration of the dura into the liquor upon peridural application; type: in vivo
[3] = system: Cancer patients suffering from intolerable pain; assay: intraspinal and intraventricular injection and infusion in cancer patients with intolerable pain; type: in vivo; settings: humans, intraspinal or intraventricular route
Method: Cancer patients suffering from intolerable pain in the final stage of post-operative pain were given 250 μg of somatostatin as an injection and thereafter 10 to 50 μg/hour of somatostatin as an infusion, in part via the intraspinal route and in part via the intraventricular route.

humans = assay: preliminary experiments with humans, peridural application; type: in vivo
rats = settings: intracerebroventricular infusion; cited from earlier work
[4] = intradural or intraspinal injections or infusions, anesthetic effect; type: in vivo

For `C[C@H](N)C(=O)NCC(=O)N[C@H]1CSSC[C@@H](C(=O)O)NC(=O)[C@H](CO)NC(=O)[C@H]([C@@H](C)O)NC(=O)[C@H](Cc2ccccc2)NC(=O)[C@H]([C@@H](C)O)NC(=O)[C@H](CCCCN)NC(=O)[C@H](Cc2c[nH]c3ccccc23)NC(=O)[C@H](Cc2ccccc2)NC(=O)[C@H](Cc2ccccc2)NC(=O)[C@H](CC(N)=O)NC(=O)[C@H](CCCCN)NC1=O` [somatostatin], the signs of pain (dogs; dog having a large decubitus) was “showed no signs of pain”, the “duration of analgesic activity” value (dogs; dogs) was “maintained for several weeks” and the sedation and behavior (dogs; dogs) was “had not been put under sedation and showed a balanced behavior”. The side effects (dogs; dogs) was “No side effects were apparent”, the “period for which heated plate was tolerated” value (dogs; dogs, all animals, heated plate of 60° C., analgesia test according to Cohen) was 5 s and the half-life [1] was 2 to 4 min. The “penetration of the dura” value [2] was “capable of rapidly (and to a high degree) penetrating the dura”, the analgesia ([3]; 250 μg injection then 10 to 50 μg/hour infusion) was “marked analgesia, comparable to that of morphine” and the “tolerability of the infusions” value ([3]; 10 to 50 μg/hour infusion) was “tolerated without any occurring side-effects for a period of over two weeks”. The analgesic effectiveness (humans; peridural application of 125 μg) was “analgesically effective”, the analgesic effectiveness (humans; peridural application of 250 μg) was “analgesically effective” and the analgesic effect (rats) was “a short-term analgesic effect was found”. For the same molecule, the anesthetic effects [4] was “have anesthetic effects”.
